Laboratory results reported in PubChem BioAssay (NCI).
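1) Cells in 96-well plates. 2) Compound, 48 h, 5 concentrations. 3) Linear interpolation between surrounding doses. 4) Unreached endpoint = highest concentration. GI50 is the concentration that inhibits growth by half. Definition used: TGI = concentration required for complete inhibition of growth.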

Experiments:
Assay in all cases: growth of human tumour cells (NCI), 48 h
[1] = system: A549 NSCLC
[2] = system: COLO 205 colon
[3] = system: SK-MEL-2 melanoma
[4] = system: PC-3 prostate
[5] = system: NCI-H23 lung
[6] = system: HL-60(TB) leukemia
[7] = system: SF-539 CNS
[8] = system: TK-10 renal
[9] = system: UACC-62 melanoma
[10] = system: EKVX NSCLC
[11] = system: NCI-H460 lung

Compound | TGI [1] | TGI [2] | TGI [3] | TGI [4] | TGI [5] | TGI [6] | TGI [7] | TGI [8] | TGI [9] | TGI [10] | TGI [11] | GI50 [2] | GI50 [3] | GI50 [4] | GI50 [6] | GI50 [7] | GI50 [8] | GI50 [9] | GI50 [10] | GI50 [11]
O=C1O/C(=C\C=C\CO)C=C1/C=C/CO | > 100 µM | 5.16 µM | 43.4 µM | 42.5 µM | 41.9 µM | 54.7 µM | 55 µM | 41 µM | 39.8 µM | 35.5 µM | > 100 µM | – | – | – | – | – | – | – | – | –
CCCCCCCCc1ccc(CCC(N)(CO)CO)cc1 | – | 2.92 µM | 3.76 µM | 3.41 µM | – | 3.03 µM | 3.39 µM | 3.58 µM | 3.31 µM | 5.8 µM | 3.53 µM | 1.58 µM | 2.06 µM | 1.75 µM | 1.32 µM | 1.85 µM | 1.89 µM | 1.72 µM | 2.36 µM | 1.76 µM
N=C(N)SCCN1CCCCC1 | > 100 µM | > 100 µM | 17 µM | 45.8 µM | > 100 µM | 46.3 µM | 84.1 µM | > 100 µM | 55.2 µM | > 100 µM | > 100 µM | – | – | – | – | – | – | – | – | –
NC(=S)N/N=C1\CC(c2ccccc2)Nc2ccccc21 (centres undefined) | – | 73.3 µM | – | – | > 100 µM | 31.3 µM | > 100 µM | > 100 µM | > 100 µM | > 100 µM | > 100 µM | – | – | – | – | – | – | – | – | –
C[N+]1(c2ccccc2)C=C(c2ccccc2)SC1=S (centres undefined) | > 100 µM | > 100 µM | > 100 µM | > 100 µM | > 100 µM | > 100 µM | > 100 µM | > 100 µM | > 100 µM | > 100 µM | > 100 µM | – | – | – | – | – | – | – | – | –
CC1(Cc2cc3c(cc2C2(c4ccc([N+](=O)[O-])cc4)OCCO2)OCO3)OCCO1 | > 100 µM | > 100 µM | > 100 µM | > 100 µM | > 100 µM | > 100 µM | > 100 µM | > 100 µM | > 100 µM | > 100 µM | > 100 µM | – | – | – | – | – | – | – | – | –
Cc1ncc(COP(=O)(O)O)c(C)c1O | > 100 µM | – | > 100 µM | > 100 µM | > 100 µM | > 100 µM | – | > 100 µM | > 100 µM | > 100 µM | > 100 µM | – | – | – | – | – | – | – | – | –
CCOc1ccc(N=Nc2ccc(-c3ccc(N=Nc4c(O)ccc5cc(S(=O)(=O)O)cc(S(=O)(=O)O)c45)cc3)cc2)cc1 | > 100 µM | > 100 µM | > 100 µM | > 100 µM | > 100 µM | > 100 µM | > 100 µM | > 100 µM | > 100 µM | > 100 µM | > 100 µM | – | – | – | – | – | – | – | – | –
Cc1ccccc1C1CC(=O)CC(c2ccccc2C)C12C(=O)NC(=S)NC2=O (centres undefined) | > 100 µM | 42.4 µM | 40.3 µM | 70 µM | > 100 µM | 59.2 µM | 48.9 µM | > 100 µM | 38.2 µM | > 100 µM | 41.8 µM | – | – | – | – | – | – | – | – | –
CC(=O)[C@]12OC(=O)C3=C1[C@H](CC[C@@H]3C)[C@@H](C)C[C@H]2C=C(C)C | 16.8 µM | 16.1 µM | 14.7 µM | 21.1 µM | 17.9 µM | 16 µM | 16.5 µM | – | 12.6 µM | – | 17.3 µM | – | – | – | – | – | – | – | – | –
Cc1cccc(/C=C2/C(=O)Nc3ccccc32)n1 | > 85 µM | > 57 µM | 36.4 µM | > 60.9 µM | 28.9 µM | 39.8 µM | 51.4 µM | 33.7 µM | 25.8 µM | 71.9 µM | > 81.2 µM | – | – | – | – | – | – | 10.2 µM | – | –
O=C(/C=C/c1ccc(O)cc1)c1cc(-c2cc(CCC(=O)c3ccc(O)cc3O)ccc2O)c(O)cc1O | > 50 µM | 22.6 µM | > 50 µM | > 50 µM | > 50 µM | > 50 µM | 24.8 µM | > 50 µM | > 50 µM | > 50 µM | > 50 µM | – | – | – | – | – | – | – | – | –
C=C(C[C@@H](O)[C@H](C)NC(=O)OCc1ccccc1)C(=O)OC(C)(C)C | > 100 µM | > 100 µM | > 100 µM | > 100 µM | > 100 µM | > 100 µM | > 100 µM | > 100 µM | > 100 µM | > 100 µM | > 100 µM | – | – | – | – | – | – | – | – | –
CC(=O)c1c(C)cc2cccc(OC3OC(CO)C(O)C(O)C3O)c2c1O (centres undefined) (tested in a mixture with another compound) | > 100 µM | > 100 µM | > 100 µM | > 100 µM | > 100 µM | > 100 µM | > 100 µM | > 100 µM | > 100 µM | > 100 µM | > 100 µM | – | – | – | – | – | – | – | – | –
CC(=O)Oc1cc(/C=C/c2ccc(O)cc2)cc(OC(C)=O)c1 | > 100 µM | > 100 µM | > 100 µM | > 100 µM | 53.9 µM | > 100 µM | 41.5 µM | > 100 µM | 67.3 µM | – | > 100 µM | – | – | – | – | – | – | – | – | –
CC(=O)C(N=NC1CCC(S(=O)(=O)NB2N=CS2)CC1)C(=O)Nc1ccccc1C (centres undefined) | 28.6 µM | 37.2 µM | 33.3 µM | – | 28.9 µM | > 100 µM | 32.4 µM | 58.6 µM | 34.8 µM | 41.2 µM | 33.9 µM | – | – | – | – | – | – | – | – | –
O=S(=O)([O-])[O-].[Fe+2].[OH2+]c1c(Cl)cc(Cl)cc1/C=N/Nc1ccccn1 | 4.14 µM | 3.47 µM | – | – | 2.64 µM | 2.92 µM | 1.27 µM | 2.33 µM | 3.38 µM | 2.25 µM | 4.42 µM | – | – | – | – | – | 1.01 µM | – | – | –
Nc1ccc(S(=O)(=O)NCCS(=O)(=O)O)cc1 | > 100 µM | – | > 100 µM | > 100 µM | > 100 µM | > 100 µM | – | > 100 µM | > 100 µM | > 100 µM | > 100 µM | – | – | – | – | – | – | – | – | –
